Measured values as given in patent publication US12194039B2, “Methods of treating heart failure by administering omecamtiv mecarbil” (Cytokinetics, Inc., priority 2020, dated 2025).
“And” between values parts separate entries of the source, which are not always exact repeats. Identical values can stand only once. “Also recorded” adds a separate entry of the source. Like-named read-outs stand apart in the source and are kept apart here.

Assays:
[1] = tested on: patients with HFrEF by baseline SBP; format: in vivo
Description: Systolic blood pressure (SBP) is a major predictor of outcomes in patients with heart failure and reduced ejection fraction (HFrEF). […] This trial provided data on the efficacy and tolerability of omecamtiv mecarbil according to baseline SBP values. In contrast to other HFrEF therapies, which may not be tolerated in patients with low baseline blood pressure (e.g., <100 mmHg), the present study was able to enroll patients with SBP at baseline of 85 mmHg or greater.
The 8232 randomized patients were subdivided according to SBP at baseline: <100 mmHg (n=1473), 101-110 mmHg (n=1734), 111-120 mmHg (n=1824), 121-130 mmHg (n=1627), and >130 mmHg (n=1574). Significant differences between these subgroups were found with respect of multiple baseline characteristics. The primary composite endpoint occurred in 715 (48.5%), 682 (39.3%), 679 (37.2%), 556 (34.2%), and 498 (31.6%) patients in each SBP subgroup, respectively. Hazard ratios (HRs) and 95% confidence intervals (CIs) for the treatment effect on the primary outcome were of 0.81, 0.70-0.94; 0.88, 0.76-1.03; 1.03, 0.88-1.19; 0.87, 0.73-1.03; and 1.07, 0.90-1.28 in each SBP subgroup, respectively.

CYP2C8 = target: T1, CYP2C8 (Homo sapiens, UniProt P10632); experiment: In vitro inhibition by OM; format: in vitro ADME; conditions: result in words
T1 sequence (P10632 1-490): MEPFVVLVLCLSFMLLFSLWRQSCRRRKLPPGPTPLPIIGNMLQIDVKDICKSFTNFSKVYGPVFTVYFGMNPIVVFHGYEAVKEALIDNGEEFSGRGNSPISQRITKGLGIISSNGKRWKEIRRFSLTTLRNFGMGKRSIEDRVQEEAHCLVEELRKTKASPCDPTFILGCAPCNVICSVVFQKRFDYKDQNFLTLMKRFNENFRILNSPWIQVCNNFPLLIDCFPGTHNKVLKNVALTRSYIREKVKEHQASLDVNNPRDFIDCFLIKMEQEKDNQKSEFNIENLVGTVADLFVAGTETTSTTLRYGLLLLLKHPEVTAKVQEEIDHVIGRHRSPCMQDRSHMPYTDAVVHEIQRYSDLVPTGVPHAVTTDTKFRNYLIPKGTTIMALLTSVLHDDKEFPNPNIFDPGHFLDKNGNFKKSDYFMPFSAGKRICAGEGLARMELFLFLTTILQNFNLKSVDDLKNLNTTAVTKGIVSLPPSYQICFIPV

[2] = tested on: patients with HFrEF by baseline NT-proBNP (no AF/F and all randomized); conditions: for 1° Outcome (time to HF hospitalization or CV death), HR / All-cause death, HR / Hospitalization for HF, HR / NT-proBNP change from baseline to 24 weeks, Ratio: OM vs placebo
Description: Here we report the effect of omecamtiv mecarbil according to baseline NT-proBNP level in patients without AF/F and in the overall population. In addition, we describe the effect of omecamtiv mecarbil using NT-proBNP as a continuous as well as a categorical measure and describe the effect of omecamtiv mecarbil on NT-proBNP level.
NT-proBNP was measured at baseline and at 2, 6, 24, 48 and 96 weeks after randomization. Plasma NT-proBNP was measured in a central laboratory (Q Squared Solutions) using the Roche Elecsys NT-proBNP two-site electrochemiluminescence immunoassay (analytical range 50-35000 pg/m L).
Baseline characteristics were summarized as frequencies with percentages, means with standard deviation (SD), or medians with interquartile ranges. Differences in baseline characteristics were tested using the Cochrane-Armitage trend test for categorical variables and the analysis of variance test for continuous variables. The difference between treatment groups in NT-proBNP at the time points after randomization in surviving patients was analyzed using an analysis of covariance model, with treatment-group assignment as a fixed-effect factor and baseline NT-proBNP as a covariate. […] Time-to-event data were evaluated with Kaplan-Meier estimates and Cox proportional-hazards models with baseline hazards stratified by randomization setting and region and with treatment group and baseline eGFR as covariates. The safety analyses were performed in patients who underwent randomization and received at least one dose of omecamtiv mecarbil or placebo. […] A P-value of 0.05 was considered statistically significant.

MATE 2-K = MATE 2-K (Homo sapiens, UniProt Q86VL8); experiment: In vitro inhibition by OM; format: in vitro ADME; conditions: result in words
[3] = Clinical pharmacokinetics: distribution and elimination; conditions: human, in vivo
Description: The volume of distribution at steady state was approximately 4.8-6.6 L/kg.
Clearance of OM after oral administration was primarily through metabolism in the liver. […] Following oral administration of radiolabeled OM to healthy subjects, approximately 49% of the dose was excreted in urine (primarily as metabolites with 8% of parent compound recovered) and 38% in feces (primarily as unchanged drug).

[4] = All patients, baseline NT-proBNP >median
[5] = All patients, baseline NT-proBNP >median, OM n = 2034
[6] = All patients, baseline NT-proBNP ≤median
[7] = All patients, baseline NT-proBNP ≤median, OM n = 2073
[8] = No AF/F, baseline NT-proBNP >median
[9] = No AF/F, baseline NT-proBNP >median, OM n = 1489
[10] = No AF/F, baseline NT-proBNP ≤median
[11] = No AF/F, baseline NT-proBNP ≤median, OM n = 1476
[12] = patients without AF/F, baseline NT-proBNP>median

MATE 2-K, sequence (Q86VL8 1-566 isoform Q86VL8-3): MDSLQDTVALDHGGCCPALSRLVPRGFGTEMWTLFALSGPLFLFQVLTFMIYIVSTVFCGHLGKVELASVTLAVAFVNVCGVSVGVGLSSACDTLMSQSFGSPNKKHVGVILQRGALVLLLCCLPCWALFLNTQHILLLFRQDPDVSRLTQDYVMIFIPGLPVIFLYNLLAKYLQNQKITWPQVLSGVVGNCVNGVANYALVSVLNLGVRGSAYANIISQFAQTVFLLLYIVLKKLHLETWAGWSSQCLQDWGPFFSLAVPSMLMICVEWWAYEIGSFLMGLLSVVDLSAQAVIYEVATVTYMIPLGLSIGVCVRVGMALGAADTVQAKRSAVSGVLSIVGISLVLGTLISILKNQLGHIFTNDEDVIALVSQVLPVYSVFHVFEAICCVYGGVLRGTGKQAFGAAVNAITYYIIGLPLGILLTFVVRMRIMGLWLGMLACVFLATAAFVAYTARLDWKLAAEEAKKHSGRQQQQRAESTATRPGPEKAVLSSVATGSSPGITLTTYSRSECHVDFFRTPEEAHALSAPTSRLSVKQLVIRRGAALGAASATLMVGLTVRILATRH

For `COC(=O)N1CCN(Cc2cccc(NC(=O)Nc3ccc(C)nc3)c2F)CC1` [omecamtiv mecarbil], the “Primary outcome, hazard ratio for the treatment effect” value (from here on “Primary outcome, hazard ratio”) ([1]; baseline SBP 101-110 mmHg (n=1734)) was 0.88, the “Primary outcome, hazard ratio” value ([1]; baseline SBP 111-120 mmHg (n=1824)) was 1.03 and the “Primary outcome, hazard ratio” value ([1]; baseline SBP 121-130 mmHg (n=1627)) was 0.87. For the same compound, the “Primary outcome, hazard ratio” value ([1]; baseline SBP <100 mmHg (n=1473)) was 0.81, the “Primary outcome, hazard ratio” value ([1]; baseline SBP >130 mmHg (n=1574)) was 1.07 and the “Inhibition of CYP2C8” value (CYP2C8) was “inhibitor”. The “NT-proBNP at 24 wks” value [2, 4] was 2809 pg/mL, the “1° Outcome (time to HF hospitalization or CV death), %” value (“1° Outcome … %” below) [2, 5] was “(48) %” and the “1° Outcome (time to HF hospitalization or CV death), Rate” value (“1° Outcome … Rate” for short) [2, 5] was 36.52 per 100 person-years. For the same compound, the “All-cause Death (%)” value [2, 5] was “(36) %”, the “All-cause Death Rate” value [2, 5] was 21.87 per 100 person-years and the “Hospitalization for HF, %” value [2, 5] was “(37) %”. For the same compound, the “Hospitalization for HF, Rate” value [2, 5] was 27.93 per 100 person-years, the “1° Outcome (time to HF hospitalization or CV death), HR” value (“1° Outcome … HR” for short) [2, 4] was 0.88 and the “All-cause death, HR” value [2, 4] was 0.97. For the same compound, the “Hospitalization for HF, HR” value [2, 4] was 0.88, the “NT-proBNP change from baseline to 24 weeks, Ratio” value (shortened to “NT-proBNP change … Ratio”) [2, 4] was 0.84 and the “NT-proBNP at 24 wks” value [2, 6] was 772 pg/mL. The “1° Outcome … %” value [2, 7] was “(26) %”, the “1° Outcome … Rate” value [2, 7] was 15.00 per 100 person-years and the “All-cause Death (%)” value [2, 7] was “(16) %”. The “All-cause Death Rate” value [2, 7] was 8.11 per 100 person-years, the “Hospitalization for HF, %” value [2, 7] was “(20) %” and the “Hospitalization for HF, Rate” value [2, 7] was 11.84 per 100 person-years. For the same compound, the “1° Outcome … HR” value [2, 6] was 1.02, the “All-cause death, HR” value [2, 6] was 1.10 and the “Hospitalization for HF, HR” value [2, 6] was 1.04. For the same compound, the “NT-proBNP change … Ratio” value [2, 6] was 0.95, the “NT-proBNP threshold at which the favorable effect emerged” value ([2]; NT-proBNP as a continuous measure, patients without AF/F) was “around 2,000 pg/mL” and the “NT-proBNP at 24 wks” value [2, 8] was 2302 pg/mL. The “1° Outcome … %” value [2, 9] was “(44) %”, the “1° Outcome … Rate” value [2, 9] was 31.30 per 100 person-years and the “All-cause Death (%)” value [2, 9] was “(32) %”. For the same compound, the “All-cause Death Rate” value [2, 9] was 18.67 per 100 person-years, the “Hospitalization for HF, %” value [2, 9] was “(32) %” and the “Hospitalization for HF, Rate” value [2, 9] was 23.26 per 100 person-years. The “1° Outcome … HR” value [2, 8] was 0.81, the “All-cause death, HR” value [2, 8] was 0.86 and the “Hospitalization for HF, HR” value [2, 8] was 0.79. The “NT-proBNP change … Ratio” value [2, 8] was 0.83, the “NT-proBNP at 24 wks” value [2, 10] was 614 pg/mL and the “1° Outcome … %” value [2, 11] was “(22) %”. For the same compound, the “1° Outcome … Rate” value [2, 11] was 12.42 per 100 person-years, the “All-cause Death (%)” value [2, 11] was “(13) %” and the “All-cause Death Rate” value [2, 11] was 6.74 per 100 person-years. The “Hospitalization for HF, %” value [2, 11] was “(17) %”, the “Hospitalization for HF, Rate” value [2, 11] was 9.62 per 100 person-years and the “1° Outcome … HR” value [2, 10] was 0.94. The “All-cause death, HR” value [2, 10] was 0.96, the “Hospitalization for HF, HR” value [2, 10] was 0.97 and the “NT-proBNP change … Ratio” value [2, 10] was 0.95. The “Effect on NT-proBNP by baseline NT-proBNP” value ([2]; baseline to 24 weeks, result in words) was “reduced NT-proBNP only in patients with a baseline value NT-proBNP greater than the median”, the “Adverse events compared to placebo” value ([2]; in vivo) was “no strong or consistent evidence that any adverse event was more common” and the “Effect on systolic blood pressure” value ([2]; in vivo) was “did not have a significant effect”. The “Effect on troponin I” value ([2]; in vivo) was “increased troponin I, significantly”, the “HR (heart rate) at 24 wks” value ([2]; in vivo) was 70 (11) bpm and 69 bpm and 70 (12) bpm and 70 bpm and the “Major cardiac ischemic events, RR” value ([2]; in vivo) was 1.16 (0.86, 1.56) and 1.10 (0.85, 1.43) and 1.08 (0.80, 1.47) and 0.99 (0.74, 1.33). For the same compound, the “Major cardiac ischemic events, number of patients” value ([2]; in vivo) was 86 (5.8) and 114 (5.5) and 83 (5.6) and 85 (4.2), the “Major cardiac ischemic events, value in parentheses” value ([2]; in vivo) was 86 (5.8) and 114 (5.5) and 83 (5.6) and 85 (4.2) and the “Reduction of heart rate” value ([2]; in vivo) was 1-2 beats per minute. The “SBP at 24 wks” value ([2]; in vivo) was 120 mmHg and 116 mmHg, the “Stroke, RR” value ([2]; in vivo) was 0.83 (0.49, 1.39) and 0.68 (0.44, 1.03) and 0.73 (0.45, 1.17) and 0.69 (0.46, 1.03) and the “Stroke, number of patients” value ([2]; in vivo) was 25 (1.7) and 36 (1.7) and 29 (2.0) and 40 (2.0). The “Stroke, value in parentheses” value ([2]; in vivo) was 25 (1.7) and 36 (1.7) and 29 (2.0) and 40 (2.0), the “Torsade/QT prolongation, RR” value ([2]; in vivo) was 0.84 (0.58, 1.23) and 0.88 (0.65, 1.19) and 1.01 (0.73, 1.39) and 0.94 (0.72, 1.23) and the “Troponin I change from baseline to 24 weeks, Ratio” value ([2]; in vivo) was 1.28 and 1.25 and 1.23. The “Ventricular tachyarrhythmia leading to treatment, RR” value ([2]; in vivo) was 0.67 (0.42, 1.07) and 0.86 (0.59, 1.25) and 1.15 (0.77, 1.72) and 1.02 (0.73, 1.42), the “Ventricular tachyarrhythmia, RR” value ([2]; in vivo) was 0.82 (0.62, 1.09) and 0.89 (0.71, 1.12) and 1.05 (0.82, 1.35) and 1.03 (0.83, 1.27) and the “Ventricular tachyarrhythmia, number of patients” value ([2]; in vivo) was 84 (6.7) and 130 (7.3) and 115 (8.6) and 160 (8.7). For the same compound, the “Ventricular tachyarrhythmia, value in parentheses” value ([2]; in vivo) was 84 (6.7) and 130 (7.3) and 115 (8.6) and 160 (8.7), the “Primary endpoint, hazard ratio” value ([2]; overall population, NT-proBNP less than or equal to the median) was 1.01 and the “Primary endpoint, hazard ratio” value ([2]; overall population, NT-proBNP>median) was 0.88. The “Primary outcome event rate compared with the placebo group” value ([2]; patients with AF/F at baseline, result in words) was “higher event rate”, the “Proportional reduction in NT-proBNP compared with placebo” value ([2]; patients with NT-proBNP greater than the median at baseline) was “approximately 17%” and the “Primary endpoint, hazard ratio” value ([2]; patients without AF/F, NT-proBNP greater than the median) was 0.81. For the same compound, the “Primary endpoint, hazard ratio” value ([2]; patients without AF/F, NT-proBNP less than or equal to the median) was 0.94, the “Benefit on primary endpoint” value ([2]; patients without AF/F, NT-proBNP≤median, result in words) was “no benefit” and the “Relative risk reduction in cardiovascular mortality” value [2, 12] was 13%. The “Relative risk reduction in heart failure hospitalization” value [2, 12] was 21%, the “Relative risk reduction in the primary endpoint” value [2, 12] was 18% and the “Treatment efficacy / benefit by baseline NT-proBNP level” value ([2]; result in words) was “higher treatment efficacy; also recorded: larger in patients with higher baseline NT-proBNP levels”. The “Inhibition of MATE 2-K” value (MATE 2-K) was “inhibitor”, the “Renal clearance as share of the systemic clearance” value [3] was “less than 10%” and the CL renal ([3]; oral, read-out: Mean renal clearance (converted)) was 16.7 mL/min. The clearance ([3]; oral, read-out: Total systemic clearance (converted)) was 195 mL/min, the half-life ([3]; patients with heart failure, read-out: Median half-life) was 23 to 32 h and the Vd ([3]; read-out: Volume of distribution at steady state) was 4.8 to 6.6 L/kg.
